20 molecules from patent US20250179027A1, “CYCLOALKYL OR HETEROCYCLYL SUBSTITUTED HETEROARYL COMPOUND, AND COMPOSITION AND USE THEREOF” (Shenzhen TargetRx, Inc., priority 2022, published 2025) can be followed below.

Assay [1] deals with T1, phosphorylated BTK Y223 in NIH/3T3 BTK C481S cells (Homo sapiens, UniProt Q06187, C481S).
T1 construct: expressed in transfected cells; host or cells: NIH/3T3 (mouse fibroblasts) engineered to express BTK C481S
In words: Phosphor-BTK(Y223) assay, NIH/3T3 BTK C481S cells. In kind it is cell-based. The settings on record: phosphorylated BTK Y223, NIH/3T3 BTK C481S cells; read-out: NIH/3T3 BTK-C481S pBTK IC50. The method, then:
(§1) The purpose of this assay is to simply, quickly and directly detect the endogenous level of BTK in cells. The specific assay steps are as follows: Day 1: NIH/3T3 BTK WT cells (7.5 k/well) and NIH/3T3 BTK C481S cells (10 k/well) were plated in 96-well plates, respectively, and cultured overnight at 37° C. and 5% CO2.
(§2) • 1. A 3-fold final concentration gradient dilution of the compound was prepared, and 50 μL was added to 100 μL of cell culture; 0.5% DMSO was used as a positive control for cell growth. • 2. The plate was incubated at 37° C., 5% CO2 for 0.5 h. • 3. Na3VO4 with a final concentration of 1 mM was added, and incubated at 37° C. and 5% CO2 for 2 hours. • 4. During the incubation, the following reagents were prepared: 1× added lysis buffer: 3 vol ddH2O+1 vol 4× lysis buffer+100× blocking reagent. p-BTK (Y223) cryptate-antibody and p-BTK (Y223) d2-antibody working solutions: 1 volume of each cryopreserved antibody (stored at −20° C.) was added to 19 times volumes of assay buffer (stored at 4° C.). • 5. After the incubation, the medium was removed and 50 μL of 1× added lysis buffer was added; The mixture was centrifuged at 500 rpm for 30 min at room temperature. • 6. The lysate was mixed well and 16 μL was transferred to a 384-well plate; 1× added lysis buffer was used as a blank control. • 7. 4 μL of pre-mixed working solutions of the two antibodies (cryptate Ab:d2 Ab=1:1) were added and the plate was sealed. • 8. The plate was incubated overnight at room temperature.
(§3) Biotek cytation3.0 microplate reader was used to read the plate at 665 nm and 620 nm, and the ratio of 665/620 nm per well was calculated.
(§4) IC50 was calculated using GraphPad Prism 7.0 software.
(§5) The following nonlinear fitting formula was used to obtain the phosphorylated BTK Y223 IC50 (half phosphorylation inhibitory concentration) of the compounds:
(§6) [formula] • X: Compound concentration log value • Y: Inhibition rate (% inhibition)
(§7) The formula for calculating cell phosphorylation inhibition rate (% inhibition rate) was: […]

The target in assay [2] is T2, phosphorylated BTK Y223 in NIH/3T3 BTK WT cells (Homo sapiens, UniProt Q06187).
T2 construct: expressed in transfected cells; host or cells: NIH/3T3 (mouse fibroblasts) engineered to express BTK WT
T2 sequence (Q06187 whole entry): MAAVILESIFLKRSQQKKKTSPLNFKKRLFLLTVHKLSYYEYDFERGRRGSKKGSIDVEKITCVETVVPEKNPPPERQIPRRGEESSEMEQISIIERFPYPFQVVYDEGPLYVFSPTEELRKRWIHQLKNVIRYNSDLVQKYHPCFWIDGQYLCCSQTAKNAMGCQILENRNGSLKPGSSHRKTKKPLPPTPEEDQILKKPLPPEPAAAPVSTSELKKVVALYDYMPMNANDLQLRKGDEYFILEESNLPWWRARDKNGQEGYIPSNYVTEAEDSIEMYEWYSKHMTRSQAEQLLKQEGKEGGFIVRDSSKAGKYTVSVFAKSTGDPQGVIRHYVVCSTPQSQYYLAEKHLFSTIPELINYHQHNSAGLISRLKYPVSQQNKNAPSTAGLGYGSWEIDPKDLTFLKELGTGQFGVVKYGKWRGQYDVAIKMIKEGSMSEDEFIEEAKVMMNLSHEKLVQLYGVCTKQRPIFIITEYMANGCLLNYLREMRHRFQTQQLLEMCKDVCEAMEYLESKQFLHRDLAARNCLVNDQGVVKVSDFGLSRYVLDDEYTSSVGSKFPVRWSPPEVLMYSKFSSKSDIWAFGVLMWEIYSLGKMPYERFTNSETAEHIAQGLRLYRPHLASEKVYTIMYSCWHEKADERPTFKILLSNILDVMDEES
In words: Phosphor-BTK(Y223) assay, NIH/3T3 BTK WT cells. The class given is cell-based. The note with it: phosphorylated BTK Y223, NIH/3T3 BTK WT cells; read-out: NIH/3T3 BTK-WT pBTK IC50. The method, then:
as §1, §2, §3, §4, §5, §6, §7

Bounds are passed on as bounds.

T1 sequence (Q06187 whole entry C481S): as the sequence (Q06187 whole entry) above, with C481S counted along it

On to `COc1ccc(F)cc1C(=O)NCc1ccc(-c2cc(C3CCC(CO)OC3)n3ncnc(N)c23)cc1` (single isomer, unassigned) [Example 62, N-(4-(4-amino-7-(6-(hydroxymethyl)tetrahydro-2H-pyran-3-yl)pyrrolo[2,1-f][1,2,4]triazin-5-yl)benzyl)-5-fluoro-2-methoxybenzamide], for which the IC50 in assay [1] was 25 to 50 nM; in assay [2], at most 25 nM.

For `COc1ccc(F)cc1C(=O)NCc1ccc(-c2nn(C3CCCC(O)C3)c(N)c2C(N)=O)cc1` (single isomer, unassigned) [Example 2, 5-amino-3-(4-((5-fluoro-2-methoxybenzoylamino)methyl)phenyl)-1-(3-hydroxycyclohexyl)-1H-pyrazole-4-carboxamide], the IC50 in assay [1] and in assay [2] was 50 to 100 nM throughout.

On to `COc1ccc(F)cc1C(=O)NCc1ccc(-c2nn(C3CCCC(C)(O)C3)c3ncnc(N)c23)cc1` (single isomer, unassigned) [Example 24, N-(4-(4-amino-1-(3-hydroxy-3-methylcyclohexanyl)-1H-pyrazolo[3,4-d]pyrimidin-3-yl)benzyl)-5-fluoro-2-methoxybenzamide], for which the IC50 was 25 to 50 nM in assay [1] and at most 25 nM in assay [2].

`COc1ccc(F)cc1C(=O)NCc1ccc(-c2nn(C3CCCC(C)(O)C3)c3ncnc(N)c23)cc1` (single isomer, unassigned) [Example 26, N-(4-(4-amino-1-(3-hydroxy-3-methylcyclohexanyl)-1H-pyrazolo[3,4-d]pyrimidin-3-yl)benzyl)-5-fluoro-2-methoxybenzamide]: the results for the IC50 in assay [1] and in assay [2] were 50 to 100 nM and 25 to 50 nM, respectively.

As to `COc1ccc(F)cc1C(=O)NCc1ccc(-c2nn(C3CCC(CO)OC3)c(N)c2C(N)=O)cc1` (single isomer, unassigned) [Example 14, 5-amino-3-(4-((5-fluoro-2-methoxybenzamido)methyl)phenyl)-1-(6-(hydroxymethyl)tetrahydro-2H-pyran-3-yl)-1H-pyrazole-4-carboxamide], the values for the IC50 in assay [1] and in assay [2] were 100 to 500 nM and 50 to 100 nM, respectively.

Take `COc1ccc(F)cc1C(=O)NCc1ccc(-c2nn([C@H]3CC[C@@H](O)CC3)c3c(=O)[nH]nc(N)c23)cc1` [Example 39, cis-N-(4-(4-amino-1-((1S,4S)-4-hydroxycyclohexanyl)-7-oxo-6,7-dihydro-1H-pyrazolo[3,4-d]pyridazin-3-yl)benzyl)-5-fluoro-2-methoxybenzamide]: the IC50 in assay [1] lay within 100 to 500 nM; in assay [2], 50 to 100 nM.

Consider `COc1ccc(F)cc1C(=O)NCc1ccc(-c2nn(C3CCC(CO)OC3)c3ncnc(N)c23)cc1` (single isomer, unassigned) [Example 16, N-(4-(4-amino-1-(6-(hydroxymethyl)tetrahydro-2H-pyran-3-yl)-1H-pyrazolo[3,4-d]pyrimidin-3-yl)benzyl)-5-fluoro-2-methoxybenzamide], for which the IC50 in assay [1] fell in the range of 100 to 500 nM; in assay [2], 50 to 100 nM.

As for `COc1ccc(F)cc1C(=O)NCc1ccc(-n2cc(C3CCC(CO)OC3)c3ncnc(N)c32)cc1` (single isomer, unassigned) [Example 52, N-(4-(4-amino-7-(6-(hydroxymethyl)tetrahydro-2H-pyran-3-yl)-5H-pyrrolo[3,2-d]pyrimidin-5-yl)benzyl)-5-fluoro-2-methoxybenzamide], the IC50 in assay [1] fell in the range of 100 to 500 nM; in assay [2], 50 to 100 nM.

Turning to `COc1ccc(F)cc1C(=O)NCc1ccc(-c2nn([C@H]3CC[C@H](O)CC3)c3c(=O)[nH]nc(N)c23)cc1` [Example 40, trans-N-(4-(4-amino-1-((1R,4R)-4-hydroxycyclohexanyl)-7-oxo-6,7-dihydro-1H-pyrazolo[3,4-d]pyridazin-3-yl)benzyl)-5-fluoro-2-methoxybenzamide], the IC50 in assay [1] lay in the range of 50 to 100 nM; in assay [2] it was 25 to 50 nM.

Take `COc1ccc(F)cc1C(=O)NCc1ccc(-c2nn(C3CCC(CO)OC3)c(N)c2C(N)=O)cc1` (stereo not drawn) [Example 12, 5-amino-3-(4-((5-fluoro-2-methoxybenzamido)methyl)phenyl)-1-(6-(hydroxymethyl)tetrahydro-2H-pyran-3-yl)-1H-pyrazole-4-carboxamide]: the IC50 in assay [1] and in assay [2] was 100 to 500 nM in each case.

Consider `COc1ccc(F)cc1C(=O)NCc1ccc(-c2nn(C3CCCC(C)(O)C3)c3ncnc(N)c23)cc1` (single isomer, unassigned) [Example 23, N-(4-(4-amino-1-(3-hydroxy-3-methylcyclohexanyl)-1H-pyrazolo[3,4-d]pyrimidin-3-yl)benzyl)-5-fluoro-2-methoxybenzamide], for which the IC50 in assay [1] and in assay [2] was 25 to 50 nM in each case.

On to `COc1ccc(F)cc1C(=O)NCc1ccc(-c2nn(C3CCCC(O)C3)c(N)c2C(N)=O)cc1` (stereo not drawn) [Example 1, 5-amino-3-(4-((5-fluoro-2-methoxybenzoylamino)methyl)phenyl)-1-(3-hydroxycyclohexyl)-1H-pyrazole-4-carboxamide], for which the IC50 in assay [1] and in assay [2] was 100 to 500 nM each time.

Consider `COc1ccc(F)cc1C(=O)NCc1ccc(-n2cc(C3CCC(CO)OC3)c3ncnc(N)c32)cc1` (single isomer, unassigned) [Example 51, N-(4-(4-amino-7-(6-(hydroxymethyl)tetrahydro-2H-pyran-3-yl)-5H-pyrrolo[3,2-d]pyrimidin-5-yl)benzyl)-5-fluoro-2-methoxybenzamide], for which the IC50 in assay [1] fell in the range of 50 to 100 nM; in assay [2], 25 to 50 nM.

For `COc1ccc(F)cc1C(=O)NCc1ccc(-c2nn(C3CCC(CO)OC3)c3c(=O)[nH]nc(N)c23)cc1` (single isomer, unassigned) [Example 48, N-(4-(4-amino-1-(6-(hydroxymethyl)tetrahydro-2H-pyran-3-yl)-7-oxo-6,7-dihydro-1H-pyrazolo[3,4-d]pyridazin-3-yl)benzyl)-5-fluoro-2-methoxybenzamide], the IC50 in assay [2] fell in the range of 100 to 500 nM.

On to `COc1ccc(F)cc1C(=O)NCc1ccc(-c2nn(C3CCC(CO)OC3)c3ncnc(N)c23)cc1` (stereo not drawn) [Example 15, N-(4-(4-amino-1-(6-(hydroxymethyl)tetrahydro-2H-pyran-3-yl)-1H-pyrazolo[3,4-d]pyrimidin-3-yl)benzyl)-5-fluoro-2-methoxybenzamide], for which the IC50 is 50 to 100 nM in assay [1] and at most 25 nM in assay [2].

For the molecule `COc1ccc(F)cc1C(=O)NCc1ccc(-c2cc(C3CCC(CO)OC3)n3ncnc(N)c23)cc1` (stereo not drawn) [Example 58, N-(4-(4-amino-7-(6-(hydroxymethyl)tetrahydro-2H-pyran-3-yl)pyrrolo[2,1-f][1,2,4]triazin-5-yl)benzyl)-5-fluoro-2-methoxybenzamide], the IC50 was 25 to 50 nM in assay [1] and at most 25 nM in assay [2].

As for `COc1ccc(F)cc1C(=O)NCc1ccc(-c2nn(C3CCCC(C)(O)C3)c3ncnc(N)c23)cc1` (single isomer, unassigned) [Example 25, N-(4-(4-amino-1-(3-hydroxy-3-methylcyclohexanyl)-1H-pyrazolo[3,4-d]pyrimidin-3-yl)benzyl)-5-fluoro-2-methoxybenzamide], the IC50 in assay [1] and in assay [2] was 25 to 50 nM throughout.

As for `COc1ccc(F)cc1C(=O)NCc1ccc(-c2nn(C3CCC(CO)OC3)c3c(=O)[nH]nc(N)c23)cc1` (single isomer, unassigned) [Example 47, N-(4-(4-amino-1-(6-(hydroxymethyl)tetrahydro-2H-pyran-3-yl)-7-oxo-6,7-dihydro-1H-pyrazolo[3,4-d]pyridazin-3-yl)benzyl)-5-fluoro-2-methoxybenzamide], the IC50 in assay [1] and in assay [2] was 100 to 500 nM in each case.

In the case of `COc1ccc(F)cc1C(=O)NCc1ccc(-c2nn(C3CCC(O)C3)c3c(=O)[nH]nc(N)c23)cc1` (stereo not drawn) [Example 42, N-(4-(4-amino-1-(3-hydroxycyclopentanyl)-7-oxo-6,7-dihydro-1H-pyrazolo[3,4-d]pyridazin-3-yl)benzyl)-5-fluoro-2-methoxybenzamide], the IC50 in assay [1] and in assay [2] was 50 to 100 nM in each case.

On to `COc1ccc(F)cc1C(=O)NCc1ccc(-c2nn(C3CCC(CO)OC3)c3ncnc(N)c23)cc1` (single isomer, unassigned) [Example 19, N-(4-(4-amino-1-(6-(hydroxymethyl)tetrahydro-2H-pyran-3-yl)-1H-pyrazolo[3,4-d]pyrimidin-3-yl)benzyl)-5-fluoro-2-methoxybenzamide], for which the IC50 is 50 to 100 nM in assay [1] and 25 to 50 nM in assay [2].
